Data published in paper PMC7522982, “PKIS deep dive yields a chemical starting point for dark kinases and a cell active BRSK2 inhibitor” (Scientific Reports, 2020).

How the values were obtained:
[1] = test system: cytoplasmic domain of PDGFR; design: method as in PMID 10048786; conditions: insect cells; read-out: IC50, autophosphorylation of the cytoplasmic domain of PDGFR in insect cells; cited from earlier work
[2] = test system: 17 different cancer and normal cell lines; assay: cell growth, deep dye drop method; format: cell-based; conditions: 1 μM for 72 h; 17 cancer and normal cell lines; deep dye drop method (N = 2)
Procedure: (A) Structure of GW296115. […] Cell lines in the panel were treated with 1 μM GW296115 for 72 h (N = 2) and analyzed using the deep dye drop method. MCF10A and MRC-5 are non-malignant cell lines. […] Coral was used to make (C): https://phanstiel-lab.med.unc.edu/CORAL.
This compound was further profiled in 17 different cancer and normal cell lines to determine whether it impacted cell growth when treated at 1 μM for 72 h. […] Here we further explore the target engagement characteristics of GW296115 in vitro and in cells and capture its specificity for the CAMK family of kinases.

[3] = target: MYLK/MLCK/smMLCK (Homo sapiens, UniProt Q15746); assay: DiscoverX scanMAX competition binding assay; design: purchased Eurofins DiscoverX (scanMAX) / Eurofins enzymatic assays
Description: (§1) Based on its narrow profile when tested in the combined Nanosyn and TSA panels, GW296115 was included in the recently released Kinase Chemogenomic Set (KCGS)[15]. All of the data presented in the Introduction section was collected prior to the inclusion of GW296115 in KCGS and everything that follows has been subsequently generated. Since its inclusion in PKIS and more recently KCGS, we have carried out a broader round of screening at DiscoverX. This profiling data has not been previously released and is reported here for the first time. GW296115 was profiled against 403 wild type human kinases at 1 μM using the DiscoverX scanMAX screening platform, which employs an active site-directed competition binding assay to quantitatively measure interactions between test compounds and kinases, [16]. GW296115 inhibited 25 kinases > 90% at 1 μM, resulting in a selectivity index (S10) of 0.062 at 1 μM (Table S2, Fig. 1C)[17].
(§2) The scanMAX assays were performed at Eurofins DiscoverX Corporation as previously described.

[4] = target: STK33 (Homo sapiens, UniProt Q9BYT3); assay: DiscoverX scanMAX competition binding assay; design: purchased Eurofins DiscoverX (scanMAX) / Eurofins enzymatic assays
Description: as §1, §2

[5] = target: MINK1/MINK (Homo sapiens, UniProt Q8N4C8); assay: DiscoverX scanMAX competition binding assay; design: purchased Eurofins DiscoverX (scanMAX) / Eurofins enzymatic assays
Description: as §1, §2

[6] = target: SGK1/SGK (Homo sapiens, UniProt O00141); assay: DiscoverX scanMAX competition binding assay; design: purchased Eurofins DiscoverX (scanMAX) / Eurofins enzymatic assays
Description: as §1, §2

[7] = target: PLK4 (Homo sapiens, UniProt O00444); assay: DiscoverX scanMAX competition binding assay; design: purchased Eurofins DiscoverX (scanMAX) / Eurofins enzymatic assays
Description: as §1, §2

[8] = target: PIM3 (Homo sapiens, UniProt Q86V86); assay: DiscoverX scanMAX competition binding assay; design: purchased Eurofins DiscoverX (scanMAX) / Eurofins enzymatic assays
Description: as §1, §2

[9] = target: T1, STK17B/DRAK2 (Homo sapiens, UniProt O94768); assay: DiscoverX scanMAX competition binding assay; design: purchased Eurofins DiscoverX (scanMAX) / Eurofins enzymatic assays
T1 sequence (O94768 1-372): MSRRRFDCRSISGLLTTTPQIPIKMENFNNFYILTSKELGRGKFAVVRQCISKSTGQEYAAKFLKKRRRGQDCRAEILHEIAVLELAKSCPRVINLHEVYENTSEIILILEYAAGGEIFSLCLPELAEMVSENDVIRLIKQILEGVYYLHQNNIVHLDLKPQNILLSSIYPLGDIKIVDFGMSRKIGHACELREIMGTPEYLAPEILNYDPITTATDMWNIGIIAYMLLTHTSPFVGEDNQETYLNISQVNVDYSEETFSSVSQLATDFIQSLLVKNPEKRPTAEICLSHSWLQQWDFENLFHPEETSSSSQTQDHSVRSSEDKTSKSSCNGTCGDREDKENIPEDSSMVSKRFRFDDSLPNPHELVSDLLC
Description: as §1, §2

[10] = target: STK17A/DRAK1 (Homo sapiens, UniProt Q9UEE5); assay: DiscoverX scanMAX competition binding assay; design: purchased Eurofins DiscoverX (scanMAX) / Eurofins enzymatic assays
Description: as §1, §2

[11] = target: RPS6KA6/RSK4 (Homo sapiens, UniProt Q9UK32); assay: DiscoverX scanMAX competition binding assay; design: purchased Eurofins DiscoverX (scanMAX) / Eurofins enzymatic assays
Description: as §1, §2

[12] = target: LRRK2 (Homo sapiens, UniProt Q5S007); assay: DiscoverX scanMAX competition binding assay; design: purchased Eurofins DiscoverX (scanMAX) / Eurofins enzymatic assays
Description: as §1, §2

[13] = target: DAPK3/ZIPK (Homo sapiens, UniProt O43293); assay: DiscoverX scanMAX competition binding assay; design: purchased Eurofins DiscoverX (scanMAX) / Eurofins enzymatic assays
Description: as §1, §2

[14] = target: CHEK2 (Homo sapiens, UniProt O96017); assay: DiscoverX scanMAX competition binding assay; design: purchased Eurofins DiscoverX (scanMAX) / Eurofins enzymatic assays
Description: as §1, §2

[15] = target: AURKC (Homo sapiens, UniProt Q9UQB9); assay: DiscoverX scanMAX competition binding assay; design: purchased Eurofins DiscoverX (scanMAX) / Eurofins enzymatic assays
Description: as §1, §2

[16] = target: TNIK (Homo sapiens, UniProt Q9UKE5); assay: DiscoverX scanMAX competition binding assay; design: purchased Eurofins DiscoverX (scanMAX) / Eurofins enzymatic assays
Description: as §1, §2

[17] = target: MAP3K9/MLK1 (Homo sapiens, UniProt P80192); assay: DiscoverX scanMAX competition binding assay; design: purchased Eurofins DiscoverX (scanMAX) / Eurofins enzymatic assays
Description: as §1, §2

LRRK2, sequence (Q5S007 whole entry): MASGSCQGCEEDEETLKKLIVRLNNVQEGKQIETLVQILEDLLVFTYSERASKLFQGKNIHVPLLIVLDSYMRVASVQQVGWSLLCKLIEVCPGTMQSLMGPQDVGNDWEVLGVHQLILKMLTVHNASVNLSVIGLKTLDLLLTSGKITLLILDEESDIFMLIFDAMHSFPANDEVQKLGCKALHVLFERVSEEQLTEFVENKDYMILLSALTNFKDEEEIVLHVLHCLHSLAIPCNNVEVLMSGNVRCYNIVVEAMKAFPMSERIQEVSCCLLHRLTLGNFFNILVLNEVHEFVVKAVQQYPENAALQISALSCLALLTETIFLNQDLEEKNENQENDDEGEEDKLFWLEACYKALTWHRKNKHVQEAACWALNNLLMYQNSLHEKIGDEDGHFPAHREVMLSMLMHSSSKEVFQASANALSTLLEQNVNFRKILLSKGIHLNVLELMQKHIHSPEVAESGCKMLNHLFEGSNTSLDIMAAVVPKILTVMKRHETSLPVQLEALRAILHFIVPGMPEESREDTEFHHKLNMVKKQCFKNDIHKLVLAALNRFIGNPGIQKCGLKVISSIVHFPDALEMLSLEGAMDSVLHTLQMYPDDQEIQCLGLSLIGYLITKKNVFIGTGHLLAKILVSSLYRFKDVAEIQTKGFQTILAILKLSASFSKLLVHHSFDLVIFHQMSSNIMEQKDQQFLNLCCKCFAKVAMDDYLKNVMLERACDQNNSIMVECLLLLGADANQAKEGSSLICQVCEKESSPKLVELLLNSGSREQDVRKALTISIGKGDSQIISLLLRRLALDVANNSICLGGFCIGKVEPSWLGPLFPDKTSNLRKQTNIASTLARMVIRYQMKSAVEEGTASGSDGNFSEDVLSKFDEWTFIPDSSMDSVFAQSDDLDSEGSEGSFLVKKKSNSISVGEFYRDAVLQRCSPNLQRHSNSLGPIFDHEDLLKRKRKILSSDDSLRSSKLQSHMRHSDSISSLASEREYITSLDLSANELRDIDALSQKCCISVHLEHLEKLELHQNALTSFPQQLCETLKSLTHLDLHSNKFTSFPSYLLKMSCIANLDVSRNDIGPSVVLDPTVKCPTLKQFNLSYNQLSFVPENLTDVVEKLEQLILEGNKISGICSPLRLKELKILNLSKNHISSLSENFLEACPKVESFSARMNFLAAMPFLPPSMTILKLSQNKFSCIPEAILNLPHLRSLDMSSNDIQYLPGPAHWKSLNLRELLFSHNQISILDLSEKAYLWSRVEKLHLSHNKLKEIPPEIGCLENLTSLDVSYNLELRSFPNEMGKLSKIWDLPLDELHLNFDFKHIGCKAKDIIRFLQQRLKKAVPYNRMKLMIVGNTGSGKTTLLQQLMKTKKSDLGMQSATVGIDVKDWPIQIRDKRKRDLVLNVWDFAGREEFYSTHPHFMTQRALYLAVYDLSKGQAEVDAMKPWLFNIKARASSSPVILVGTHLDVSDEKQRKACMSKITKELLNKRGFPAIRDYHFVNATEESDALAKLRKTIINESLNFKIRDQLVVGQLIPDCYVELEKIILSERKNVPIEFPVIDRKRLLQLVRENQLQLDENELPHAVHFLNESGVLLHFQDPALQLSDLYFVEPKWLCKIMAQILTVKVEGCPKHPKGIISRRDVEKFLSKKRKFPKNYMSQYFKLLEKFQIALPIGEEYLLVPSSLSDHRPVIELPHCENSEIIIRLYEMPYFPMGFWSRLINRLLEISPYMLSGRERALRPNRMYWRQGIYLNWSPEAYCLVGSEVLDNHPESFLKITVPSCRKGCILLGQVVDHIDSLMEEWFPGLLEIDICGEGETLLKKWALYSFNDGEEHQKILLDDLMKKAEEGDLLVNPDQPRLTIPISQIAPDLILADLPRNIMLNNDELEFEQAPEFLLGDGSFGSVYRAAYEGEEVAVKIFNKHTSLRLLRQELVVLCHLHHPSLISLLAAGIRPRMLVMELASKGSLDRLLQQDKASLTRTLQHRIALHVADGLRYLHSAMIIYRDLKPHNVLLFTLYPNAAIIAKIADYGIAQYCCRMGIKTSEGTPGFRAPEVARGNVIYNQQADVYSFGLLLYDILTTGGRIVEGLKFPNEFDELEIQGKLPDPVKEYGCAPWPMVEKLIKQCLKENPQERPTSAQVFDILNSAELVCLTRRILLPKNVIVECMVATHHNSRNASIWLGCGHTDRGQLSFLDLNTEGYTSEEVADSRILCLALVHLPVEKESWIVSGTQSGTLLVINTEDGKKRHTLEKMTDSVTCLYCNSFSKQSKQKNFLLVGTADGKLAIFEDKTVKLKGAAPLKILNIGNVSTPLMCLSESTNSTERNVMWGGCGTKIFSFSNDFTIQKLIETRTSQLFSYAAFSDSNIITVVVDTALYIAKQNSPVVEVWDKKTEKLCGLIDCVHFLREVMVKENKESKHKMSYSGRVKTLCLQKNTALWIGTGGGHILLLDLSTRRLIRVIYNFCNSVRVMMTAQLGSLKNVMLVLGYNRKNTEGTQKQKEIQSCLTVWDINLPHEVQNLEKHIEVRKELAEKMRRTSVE
MAP3K9/MLK1, sequence (P80192 whole entry): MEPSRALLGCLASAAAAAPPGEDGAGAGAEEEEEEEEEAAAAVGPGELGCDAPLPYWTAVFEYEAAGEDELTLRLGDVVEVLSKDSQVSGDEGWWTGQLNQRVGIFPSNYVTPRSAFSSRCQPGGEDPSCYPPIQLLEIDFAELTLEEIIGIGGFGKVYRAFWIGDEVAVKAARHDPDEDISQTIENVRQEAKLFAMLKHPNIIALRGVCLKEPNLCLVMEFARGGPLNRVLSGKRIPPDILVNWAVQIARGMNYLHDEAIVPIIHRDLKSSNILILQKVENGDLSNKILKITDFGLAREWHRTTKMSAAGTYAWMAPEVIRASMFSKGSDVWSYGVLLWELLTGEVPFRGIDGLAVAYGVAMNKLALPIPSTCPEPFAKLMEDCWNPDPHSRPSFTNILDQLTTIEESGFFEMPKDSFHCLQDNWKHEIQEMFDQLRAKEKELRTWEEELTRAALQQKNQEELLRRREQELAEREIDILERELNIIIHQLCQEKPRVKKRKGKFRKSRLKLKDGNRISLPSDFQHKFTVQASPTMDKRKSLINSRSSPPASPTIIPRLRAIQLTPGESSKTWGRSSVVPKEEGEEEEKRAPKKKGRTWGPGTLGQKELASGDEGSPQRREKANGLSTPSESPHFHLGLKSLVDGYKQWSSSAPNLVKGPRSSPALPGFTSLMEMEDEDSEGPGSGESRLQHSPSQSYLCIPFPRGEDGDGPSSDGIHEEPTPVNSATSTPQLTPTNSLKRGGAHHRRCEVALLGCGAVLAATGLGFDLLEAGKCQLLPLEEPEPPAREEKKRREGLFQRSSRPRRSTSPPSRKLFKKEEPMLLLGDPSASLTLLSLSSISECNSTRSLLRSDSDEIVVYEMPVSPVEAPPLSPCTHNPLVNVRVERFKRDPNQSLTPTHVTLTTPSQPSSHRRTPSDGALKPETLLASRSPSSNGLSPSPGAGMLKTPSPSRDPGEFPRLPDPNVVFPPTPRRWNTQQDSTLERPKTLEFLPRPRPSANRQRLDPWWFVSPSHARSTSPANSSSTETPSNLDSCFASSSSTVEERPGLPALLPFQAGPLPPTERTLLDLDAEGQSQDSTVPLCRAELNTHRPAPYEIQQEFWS
DAPK3/ZIPK, sequence (O43293 whole entry): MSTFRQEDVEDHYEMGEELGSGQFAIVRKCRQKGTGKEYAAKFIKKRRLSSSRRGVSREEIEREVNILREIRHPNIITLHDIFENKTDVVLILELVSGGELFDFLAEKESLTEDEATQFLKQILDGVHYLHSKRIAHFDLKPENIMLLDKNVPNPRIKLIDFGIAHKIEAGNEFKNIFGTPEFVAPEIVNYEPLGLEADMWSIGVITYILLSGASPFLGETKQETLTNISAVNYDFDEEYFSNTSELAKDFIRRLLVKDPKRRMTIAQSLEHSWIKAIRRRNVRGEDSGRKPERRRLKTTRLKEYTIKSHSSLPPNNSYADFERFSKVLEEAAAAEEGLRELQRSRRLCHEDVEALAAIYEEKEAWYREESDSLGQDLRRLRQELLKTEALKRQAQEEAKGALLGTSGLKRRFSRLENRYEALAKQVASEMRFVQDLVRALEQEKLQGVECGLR
SGK1/SGK, sequence (O00141 whole entry): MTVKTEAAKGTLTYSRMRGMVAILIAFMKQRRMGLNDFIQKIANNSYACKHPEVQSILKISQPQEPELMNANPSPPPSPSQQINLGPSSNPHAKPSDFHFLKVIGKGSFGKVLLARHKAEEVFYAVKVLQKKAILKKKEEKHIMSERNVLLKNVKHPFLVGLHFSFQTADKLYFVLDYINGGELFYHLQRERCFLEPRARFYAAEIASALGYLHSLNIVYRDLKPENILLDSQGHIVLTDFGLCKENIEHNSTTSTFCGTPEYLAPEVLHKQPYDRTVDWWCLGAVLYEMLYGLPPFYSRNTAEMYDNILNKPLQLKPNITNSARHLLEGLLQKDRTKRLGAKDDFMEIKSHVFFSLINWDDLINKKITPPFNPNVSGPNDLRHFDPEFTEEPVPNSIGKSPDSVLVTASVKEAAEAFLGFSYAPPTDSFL
STK17A/DRAK1, sequence (Q9UEE5 whole entry): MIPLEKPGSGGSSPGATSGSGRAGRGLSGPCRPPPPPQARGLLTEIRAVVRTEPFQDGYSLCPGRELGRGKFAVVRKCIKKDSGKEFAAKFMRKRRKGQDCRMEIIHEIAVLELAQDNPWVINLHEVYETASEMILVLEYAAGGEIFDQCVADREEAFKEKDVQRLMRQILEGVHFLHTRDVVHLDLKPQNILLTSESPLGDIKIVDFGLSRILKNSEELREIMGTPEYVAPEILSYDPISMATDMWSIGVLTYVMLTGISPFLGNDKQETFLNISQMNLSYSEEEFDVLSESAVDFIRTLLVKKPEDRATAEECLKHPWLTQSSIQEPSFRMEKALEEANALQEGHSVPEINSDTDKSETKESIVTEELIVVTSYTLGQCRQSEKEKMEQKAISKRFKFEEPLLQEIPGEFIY

COc1ccc2[nH]c3c4[nH]c5ccc(OC)cc5c4c4c(c3c2c1)C(=O)NC4=O [GW296115]
IC50 [1]: 2000 nM
effect on cell growth [2]: did not impact cell growth
inhibition at 1 µM [3]: 95.4%
inhibition at 1 µM [4]: 92%
inhibition at 1 µM [5]: 96%
inhibition at 1 µM [6]: 91.2%
inhibition at 1 µM [7]: 99.5%
inhibition at 1 µM [8]: 94.4%
inhibition at 1 µM [9]: 100%
inhibition at 1 µM [10]: 99.6%
inhibition at 1 µM [11]: 94.7%
inhibition at 1 µM [12]: 100%
inhibition at 1 µM [13]: 96.9%
inhibition at 1 µM [14]: 92.5%
inhibition at 1 µM [15]: 94.1%
inhibition at 1 µM [16]: 97.7%
inhibition at 1 µM [17]: 95.1%
